Values of other authors, collected in US20110123612A1, “PHARMACEUTICAL PREPARATION CONTAINING NON-DIHYDROPYRIDINE CALCIUM CHANNEL BLOCKER AND ANGIOTENSIN-2 RECEPTOR BLOCKER” (priority 2008, published 2011).

Key:
[1] = active losartan molecule released into blood
[2] = active form of losartan

time to peak blood concentration [1]: ≤ 1 h
SMILES: CCCCc1nc(Cl)c(CO)n1Cc1ccc(-c2ccccc2-c2nn[nH]n2)cc1 [losartan]
anti-hypertensive effects of the active form [2]: ≥ 10 fold
